The text below walks through data of article PMC5514153, “Targeting PTPRZ inhibits stem cell-like properties and tumorigenicity in glioblastoma cells” (Scientific Reports, 2017).

One experiment has as its target T1, PTPRG V1038F (Homo sapiens, UniProt P23470, V1038F).
T1 construct: Point mutants of the PTPRZ1-ICR, PTPRG-ICR, and PTPN1 catalytic domain were generated; GST (N); made in house
The experiment is described as follows: Inhibitor sensitivity of point mutant PTPRG V1038F. As to conditions: 10 µM, vs wild-type PTPRG. The format is biochemical. An excerpt: Figure 5 Structural basis for PTPRZ inhibition of NAZ2329. (A) An enlarged view of the X-ray structure of human PTPRZ1-D1 complexed with NAZ2329 (PDB ID: 5H08) (left), X-ray structure of the apo (open) form of PTPRZ1-D1 (PDB ID: 5AWX, ref. [6], middle) and a computer-modeled structure of the closed form of PTPRZ1-D1 complexed with a competitive inhibitor, SCB4380 (ref. [6], right), are shown. PTPRZ1-D1 is shown as a gray surface representation, in which Cys1933 at the active site and Val-1911 at the bottom of the allosteric pocket are indicated in red and yellow, respectively. Inhibitors are colored according to the atomic species in a stick figure representation as follows: oxygen (red), nitrogen (blue), sulfur (yellow), and carbon (green). The bottom figures show the conformation of the WPD loop (orange) as cartoon representations, in which Asp1901 and Cys1933 are indicated by orange and red spheres, respectively. Side chains of Arg1939 at the active site, Met1902 in the WPD loop, and Val-1911 at the bottom of the allosteric binding area are also shown in the stick representation. (B) LigPlot representation of the NAZ2329 interaction with PTPRZ1-D1. The predicted hydrogen bonds (broken black lines) and residues (red spoked arcs) involved in the hydrophobic interaction are shown. […]

In the next experiment the test system is C6 cells. Description: Sphere formation, SOX2 expression and self-renewal, C6 cells. The format is cell-based, rat. On the procedure: Figure 7 Cellular effects of NAZ2329 on the malignant phenotypes of C6 cells. (A) Phosphorylation of paxillin at Tyr-118. C6 cells were incubated with NAZ2329 for the indicated periods. Immunoprecipitated paxillin was analyzed by Western blotting using anti-pY118-paxillin and anti-paxillin. Blots are representative of five independent cultures. […] (B) Cell proliferation assay. C6 cells were incubated for 48 h with NAZ2329 in normal medium containing 2% FBS. […] (C) Boyden chamber assay. Cells were allowed to migrate for 3 h. DAPI-stained nuclei are shown before (total) and after (migrated) the removal of cells remaining in the top chamber. Scale bars, 100 µm. […] (D,E) Sphere formation (D) and SOX2 expression (E). C6 cells were cultured in CSC medium for 7 days with indicated concentrations of NAZ2329. Images are representative of five independent cultures. Scale bars, 100 µm. […] (F) Self-renewal of C6 spheres. C6 spheres were initially developed in CSC medium for 7 days, followed by an incubation with NAZ2329 in CSC medium for 5 days. Images are representative of five independent cultures. Scale bars, 100 µm. […] Full-length blots and gels are presented in Supplementary Fig. S7.
Cells were inoculated at 5 × 10^3 cells per 96-well uncoated polystyrene plate (# 9018, Corning) or 5 × 10^4 cells per 35-mm plastic petri dish (#351008, Corning), and cultured in a serum-free medium containing DMEM/F12 with 1x B27 supplement (#17504044, Thermo Fisher Scientific), EGF (20 ng/ml), and basic fibroblast growth factor (bFGF, 20 ng/ml, #064-05381, Wako pure chemical). After a 7-day culture, cells were fixed with 10% neutral formalin and pictured under a conventional microscope. The number of spheroids of approximately 70 µm in diameter were counted manually using Adobe Photoshop CS6 (Adobe).

T1 sequence (P23470 763-1445 V1038F limits assumed): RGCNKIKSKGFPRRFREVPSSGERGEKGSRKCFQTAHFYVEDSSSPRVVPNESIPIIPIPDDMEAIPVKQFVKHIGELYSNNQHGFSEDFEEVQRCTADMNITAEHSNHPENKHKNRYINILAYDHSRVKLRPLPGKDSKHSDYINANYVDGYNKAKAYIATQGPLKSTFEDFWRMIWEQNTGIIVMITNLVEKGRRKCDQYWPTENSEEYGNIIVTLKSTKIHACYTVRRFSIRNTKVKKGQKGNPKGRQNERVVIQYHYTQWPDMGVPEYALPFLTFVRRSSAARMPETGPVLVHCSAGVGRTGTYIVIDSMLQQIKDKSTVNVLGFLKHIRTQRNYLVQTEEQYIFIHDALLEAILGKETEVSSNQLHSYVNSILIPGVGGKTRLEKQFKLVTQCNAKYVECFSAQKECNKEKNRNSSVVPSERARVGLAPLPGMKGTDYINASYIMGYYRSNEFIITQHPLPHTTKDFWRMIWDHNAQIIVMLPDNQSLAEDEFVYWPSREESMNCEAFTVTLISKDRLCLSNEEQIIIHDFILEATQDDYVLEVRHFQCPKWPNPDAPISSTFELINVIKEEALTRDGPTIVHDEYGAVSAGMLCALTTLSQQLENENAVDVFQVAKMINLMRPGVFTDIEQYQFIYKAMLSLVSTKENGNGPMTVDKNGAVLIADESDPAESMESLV

Turning to `CCOc1ccc(C(F)(F)F)cc1CSc1ccsc1C(=O)NS(=O)(=O)c1ccccc1` [NAZ2329], the “effect of V1038F mutation on sensitivity to inhibitor” value on PTPRG V1038F is recorded as “resulted in resistance”. In addition, in the experiment with C6 cells (C6 cells, CSC medium, 7 days), the SOX2 expression entry is “decrease in SOX2 expression” and the sphere formation entry is reported as “dose-dependently inhibited sphere formation”. In the experiment on C6 cells (C6 spheres, 5 days with compound), the “self-renewal of sphere-forming cells” value is “suppressed self-renewal”.
